Laboratory results taken from the CombiSolv-Exp solvation set (Vermeire and Green 2021).
Values belong to the compound of their own block, whether it stands above or below them.

Assay: solvent given as SMILES

SMILES: O=[N+]([O-])c1ccccc1O
solvation free energy, 298 K (in CC(C)CC(C)(C)C): -6.5 kcal/mol
solvation free energy, 298 K (in CCCCCC): -6.48 kcal/mol
solvation free energy, 298 K (in CCCCCCC): -6.49 kcal/mol
solvation free energy, 298 K (in CCCCCCCC): -6.49 kcal/mol
solvation free energy, 298 K (in CCCCCCCCCC): -6.47 kcal/mol
solvation free energy, 298 K (in Cc1cccc(C)c1): -7.73 kcal/mol
solvation free energy, 298 K (in O): -4.58 kcal/mol

SMILES: CCC(=O)Nc1ccc(Cl)c(Cl)c1
solvation free energy, 298 K (in O): -7.78 kcal/mol

SMILES: CCCCCN(CCCCC)N=O
solvation free energy, 298 K (in CC(C)CC(C)(C)C): -9.29 kcal/mol

SMILES: Oc1ccccc1Cl
solvation free energy, 298 K (in CC(C)CC(C)(C)C): -5.44 kcal/mol
solvation free energy, 298 K (in CCCCCC): -5.72 kcal/mol
solvation free energy, 298 K (in CCCCCCC): -5.71 kcal/mol
solvation free energy, 298 K (in CCCCCCCC): -5.67 kcal/mol
solvation free energy, 298 K (in CCCCCCCCCC): -5.63 kcal/mol
solvation free energy, 298 K (in Cc1ccc(C)cc1): -6.37 kcal/mol
solvation free energy, 298 K (in Cc1cccc(C)c1): -6.42 kcal/mol
solvation free energy, 298 K (in Cc1ccccc1C): -6.41 kcal/mol
solvation free energy, 298 K (in O): -4.56 kcal/mol

SMILES: CCCCCCCCCCCCCCCCO
solvation free energy, 298 K (in CC(C)O): -13.7 kcal/mol
solvation free energy, 298 K (in CCC(C)=O): -13.8 kcal/mol
solvation free energy, 298 K (in CCCCCCCCC=CCCCCCCCC(=O)OCC(COC(=O)CCCCCCCC=CCCCCCCCC)OC(=O)CCCCCCCC=CCCCCCCCC): -11.6 kcal/mol
solvation free energy, 298 K (in CCCCCCCCCCO): -13.4 kcal/mol
solvation free energy, 298 K (in CCCCCCCCO): -13.5 kcal/mol
solvation free energy, 298 K (in CCCCCCO): -13.6 kcal/mol
solvation free energy, 298 K (in CCCCOCCCC): -13.1 kcal/mol
solvation free energy, 298 K (in CCOCC): -13.5 kcal/mol
solvation free energy, 298 K (in O): -2.76 kcal/mol

SMILES: NCCO
solvation free energy, 298 K (in CCCCCCC): -2.5 kcal/mol

SMILES: Nc1ccccc1[N+](=O)[O-]
solvation free energy, 298 K (in CC(C)CC(C)(C)C): -7.5 kcal/mol
solvation free energy, 298 K (in CCCCCC): -7.51 kcal/mol
solvation free energy, 298 K (in O): -7.43 kcal/mol

SMILES: O=C1CCCC1
solvation free energy, 298 K (in CCCCCCC): -4.53 kcal/mol
solvation free energy, 298 K (in CCCCCCCCCCCCCCCC): -4.22 kcal/mol
solvation free energy, 298 K (in CCCCCCCCO): -5.02 kcal/mol
solvation free energy, 298 K (in CCCCCl): -5.46 kcal/mol
solvation free energy, 298 K (in CCCCOCCCC): -4.82 kcal/mol
solvation free energy, 298 K (in ClC(Cl)(Cl)Cl): -5.54 kcal/mol
solvation free energy, 298 K (in ClCCCl): -6.26 kcal/mol
solvation free energy, 298 K (in O): -4.72 kcal/mol
solvation free energy, 298 K (in [2H]O[2H]): -4.75 kcal/mol

SMILES: O=C(OC1CCCCC1)c1ccccc1C(=O)OC1CCCCC1
solvation free energy, 298 K (in O): -9.07 kcal/mol

SMILES: FC(Cl)Cl
solvation free energy, 298 K (in CN1CCCC1=O): -1.34 kcal/mol
solvation free energy, 298 K (in CN(C)C=O): -1.35 kcal/mol
solvation free energy, 298 K (in O): 1.54 kcal/mol

Now from value to compound:

solvation free energy, 298 K (in O): -8.41 kcal/mol
SMILES: Cn1ccnc1

solvation free energy, 298 K (in CN(C)C=O): -10.8 kcal/mol
solvation free energy, 298 K (in O): -6.79 kcal/mol
SMILES: COC(=O)c1cccc([N+](=O)[O-])c1

solvation free energy, 298 K (in O): -9.53 kcal/mol
SMILES: Nc1ccc(O)c2c1C(=O)c1ccccc1C2=O

solvation free energy, 298 K (in CC(C)O): -9.77 kcal/mol
solvation free energy, 298 K (in CCCCCC): -7.69 kcal/mol
solvation free energy, 298 K (in CCCCCCCC): -7.87 kcal/mol
solvation free energy, 298 K (in CCCCCCCCCO): -9.64 kcal/mol
solvation free energy, 298 K (in CCCO): -9.73 kcal/mol
solvation free energy, 298 K (in O): -3.69 kcal/mol
SMILES: CCCCCCCCCCO

solvation free energy, 298 K (in CC(C)(C)O): -5.83 kcal/mol
solvation free energy, 298 K (in CC(C)CC(C)(C)C): -4.97 kcal/mol
solvation free energy, 298 K (in CCCCO): -6.41 kcal/mol
solvation free energy, 298 K (in CCCO): -6.34 kcal/mol
solvation free energy, 298 K (in O): -4.8 kcal/mol
SMILES: Cc1cccnc1

solvation free energy, 298 K (in O): -11.3 kcal/mol
SMILES: CC(C(=O)O)c1ccc(N2CC=CC2)c(Cl)c1 (stereo not drawn)

solvation free energy, 298 K (in O): -1.39 kcal/mol
SMILES: Cc1ccc(Br)cc1

solvation free energy, 298 K (in O): 2.94 kcal/mol
SMILES: CC(C)CCC(C)(C)C

solvation free energy, 298 K (in O): -2.04 kcal/mol
SMILES: CCCCCCCC(=O)OC
